Measured values published in the NIST ThermoML archive (doi:10.1016/j.tca.2012.10.018).
Where “and” joins values, the source holds several entries; their conditions need not be identical. Equal values may be shown once.

How the values were obtained:
[1] = mn = molality of the nth substance listed, in mol/kg; details: 101 kPa, Liquid; for speed of sound: Sing-around technique in a fixed-path interferometer; for mass density: Vibrating tube method
[2] = 101 kPa, Liquid; for speed of sound: Sing-around technique in a fixed-path interferometer; for mass density: Vibrating tube method

O [water] + NCC(=O)NCC(=O)O
[1], m2 = 0
Details	mass density [kg/m3]	speed of sound [m/s]
305.15 K	995.132	1513.5
310.15 K	992.274	1523.5
315.15 K	991.385	1532.2

O [water] + NCC(=O)O
[1], m2 = 0
Details	mass density [kg/m3]	speed of sound [m/s]
305.15 K	995.132	1513.5
310.15 K	992.274	1523.5
315.15 K	991.385	1532.2

CC1(C)SC2C(NC(=O)C(N)c3ccccc3)C(=O)N2C1C(=O)O (stereo not drawn) + O
[1]
Details	mass density, m1 = 0.0005 [kg/m3]	mass density, m1 = 0.001 [kg/m3]	mass density, m1 = 0.002 [kg/m3]	mass density, m1 = 0.004 [kg/m3]	speed of sound, m1 = 0.0005 [m/s]	speed of sound, m1 = 0.001 [m/s]	speed of sound, m1 = 0.002 [m/s]	speed of sound, m1 = 0.004
305.15 K	995.119	995.211	995.313	995.507	1513.6	1513.8	1514.1	1514.2 m/s
310.15 K	993.425	993.515	993.607	993.805	1523.4	1523.6	1524.1	1524 m/s
315.15 K	991.53	991.614	991.711	991.91	1531.9	1532	1532.4	1532.4 m/s and 1531.9 m/s

NCC(=O)NCC(=O)O [glycylglycine] + O
[1]
Details	mass density, m1 = 0.01976 [kg/m3]	mass density, m1 = 0.03098 [kg/m3]	mass density, m1 = 0.06804 [kg/m3]	mass density, m1 = 0.08258 [kg/m3]	mass density, m1 = 0.1196 [kg/m3]	speed of sound, m1 = 0.01976 [m/s]	speed of sound, m1 = 0.03098 [m/s]	speed of sound, m1 = 0.06804 [m/s]	speed of sound, m1 = 0.08258 [m/s]	speed of sound, m1 = 0.1196 [m/s]
305.15 K	996.227	996.841	998.809	999.555	1001.4	1515	1515.8	1518.5	1519.5	1522.1
310.15 K	993.362	993.969	995.921	996.662	998.494	1524.9	1525.7	1528.1	1529.1	1531.5
315.15 K	992.463	993.064	994.996	995.732	997.528	1533.4	1534.1	1536.3	1537.2	1539.4

NCC(=O)O [2-aminoacetic acid] + O
[1]
Details	mass density, m1 = 0.03272 [kg/m3]	mass density, m1 = 0.04933 [kg/m3]	mass density, m1 = 0.0581 [kg/m3]	mass density, m1 = 0.09278 [kg/m3]	mass density, m1 = 0.1392 [kg/m3]	speed of sound, m1 = 0.03272 [m/s]	speed of sound, m1 = 0.04933 [m/s]	speed of sound, m1 = 0.0581 [m/s]	speed of sound, m1 = 0.09278 [m/s]	speed of sound, m1 = 0.1392 [m/s]
305.15 K	996.158	996.664	996.929	–	999.339	1515	1515.7	1516.1	1517.7	1519.6
310.15 K	993.281	–	994.038	995.054	–	1524.9	1525.5	1525.9	1527.3	1529
315.15 K	992.376	–	993.122	994.122	995.416	1533.4	1534	1534.3	1535.6	1537.2

O [water]
[2]
Details	mass density [kg/m3]	speed of sound [m/s]
305.15 K	995.132	1513.5
310.15 K	992.274	1523.5
315.15 K	991.385	1532.2

CC(C)C[C@H](NC(=O)CN)C(=O)O [glycyl-L-leucine] + O
[1]
Details	mass density, m1 = 0.03308 [kg/m3]	mass density, m1 = 0.05972 [kg/m3]	mass density, m1 = 0.09457 [kg/m3]	mass density, m1 = 0.1115 [kg/m3]	speed of sound, m1 = 0.03308 [m/s]	speed of sound, m1 = 0.05972 [m/s]	speed of sound, m1 = 0.09457 [m/s]	speed of sound, m1 = 0.1115 [m/s]
305.15 K	996.762	998.038	999.652	1000.42	1518.1	1521.8	1526.8	1529.1
310.15 K	993.879	995.132	996.722	997.479	1528	1531.6	1536.3	1538.6
315.15 K	992.968	994.198	995.757	996.494	1536.5	1539.9	1544.4	1546.6

O [water] + CC(C)C[C@H](NC(=O)CN)C(=O)O
[1], m2 = 0
Details	mass density [kg/m3]	speed of sound [m/s]
305.15 K	995.132	1513.5
310.15 K	992.274	1523.5
315.15 K	991.385	1532.2
